Test results published in patent US8729082B2, “Substituted imidazoquinoxalines” (Bayer Intellectual Property GmbH, priority 2009, dated 2014).

These molecules were tested against T1, human kinase Mps-1 (Homo sapiens, UniProt P33981) (assay: Mps-1 kinase assay (HTRF)). Conditions: lowATP; mean; read-out: Mps1 lowATP mean IC50.
T1 construct: N-terminally GST-tagged human full length recombinant Mps-1 kinase; purchased Invitrogen, Karslruhe, Germany PV4071
T1 sequence (P33981 1-857): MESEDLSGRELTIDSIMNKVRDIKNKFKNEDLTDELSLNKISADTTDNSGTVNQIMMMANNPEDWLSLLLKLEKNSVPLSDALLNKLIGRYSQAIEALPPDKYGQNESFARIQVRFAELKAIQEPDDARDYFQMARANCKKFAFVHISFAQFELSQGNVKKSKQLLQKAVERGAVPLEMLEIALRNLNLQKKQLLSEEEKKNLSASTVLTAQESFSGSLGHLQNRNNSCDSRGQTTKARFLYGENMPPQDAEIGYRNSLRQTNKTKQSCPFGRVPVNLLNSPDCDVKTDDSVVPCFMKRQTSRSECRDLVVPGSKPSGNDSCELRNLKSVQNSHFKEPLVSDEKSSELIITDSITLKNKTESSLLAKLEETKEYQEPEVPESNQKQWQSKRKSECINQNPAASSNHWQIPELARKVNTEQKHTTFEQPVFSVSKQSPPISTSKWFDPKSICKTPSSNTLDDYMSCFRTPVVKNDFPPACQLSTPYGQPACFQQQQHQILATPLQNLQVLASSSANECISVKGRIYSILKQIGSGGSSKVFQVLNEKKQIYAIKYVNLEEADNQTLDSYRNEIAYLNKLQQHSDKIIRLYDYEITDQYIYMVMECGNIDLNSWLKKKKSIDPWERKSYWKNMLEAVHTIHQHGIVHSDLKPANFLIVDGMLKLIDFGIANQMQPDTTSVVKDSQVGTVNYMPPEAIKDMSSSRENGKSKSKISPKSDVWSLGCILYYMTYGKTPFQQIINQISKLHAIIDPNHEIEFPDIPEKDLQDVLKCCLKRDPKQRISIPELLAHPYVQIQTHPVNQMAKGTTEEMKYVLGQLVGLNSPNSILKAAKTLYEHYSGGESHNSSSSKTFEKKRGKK
Type: biochemical
Procedure: The human kinase Mps-1 phosphorylates a biotinylated substrate peptide. Detection of the phosphorylated product is achieved by homogenous time-resolved fluorescence resonance energy transfer (HTRF) from Europium-labelled anti-phospho-Serine/Threonine antibody as donor to streptavidin labelled with cross-linked allophycocyanin (SA-XLent) as acceptor. Compounds are tested for their inhibition of the kinase activity.
N-terminally GST-tagged human full length recombinant Mps-1 kinase (purchased from Invitrogen, Karslruhe, Germany, cat. no PV4071) was used. As substrate for the kinase reaction a biotinylated peptide of the amino-acid sequence PWDPDDADITEILG (C-terminus in amide form, purchased from Biosynthan GmbH, Berlin) was used.
For the assay 50 nl of a 100-fold concentrated solution of the test compound in DMSO was pipetted into a black low volume 384 well microtiter plate (Greiner Bio-One, Frickenhausen, Germany), 2 μl of a solution of Mps-1 in assay buffer [0.1 mM sodium-ortho-vanadate, 10 mM MgCl2, 2 mM DTT, 25 mM Hepes pH 7.7, 0.05% BSA, 0.001% Pluronic F-127] were added and the mixture was incubated for 15 min at 22° C. to allow pre-binding of the test compounds to Mps-1 before the start of the kinase reaction. Then the kinase reaction was started by the addition of 3 μl of a solution of 16.7 μM ATP and 1.67 μM peptide in assay buffer and the resulting mixture was incubated for a reaction time of 60 min at 22° C. The concentration of Mps-1 in the assay was adjusted to the activity of the enzyme lot and was chosen appropriate to have the assay in the linear range, typical enzyme concentrations were in the range of about 1 nM (final conc. in the 5 μl assay volume). The reaction was stopped by the addition of 3 μl of a solution of HTRF detection reagents (100 mM Hepes pH 7.4, 0.1% BSA, 40 mM EDTA, 140 nM Streptavidin-XLent [#61GSTXLB, Fa. Cis Biointernational, Marcoule, France], 1.5 nM anti-phospho(Ser/Thr)-Europium-antibody [#AD0180, PerkinElmer LAS, Rodgau-Jügesheim, Germany].
The resulting mixture was incubated 1 h at 22° C. to allow the binding of the phosphorylated peptide to the anti-phospho(Ser/Thr)-Europium-antibody. Subsequently the amount of phosphorylated substrate was evaluated by measurement of the resonance energy transfer from the Europium-labelled anti-phospho(Ser/Thr) antibody to the Streptavidin-XLent. Therefore, the fluorescence emissions at 620 nm and 665 nm after excitation at 350 nm was measured in a HTRF reader, e.g. a Rubystar (BMG Labtechnologies, Offenburg, Germany) or a Viewlux (PerkinElmer LAS, Rodgau-Jügesheim, Germany). The ratio of the emissions at 665 nm and at […] was taken as the measure for the amount of phosphorylated substrate. The data were normalised (enzyme reaction without inhibitor=0% inhibition, all other assay components but no enzyme=100% inhibition).

IC50 [nM]	SMILES
127	O=C(NC1CC1)c1ccc(-c2cnc3c(NCCN4CCOCC4)nc4ccccc4n23)cc1 [Example 2-24, N-cyclopropyl-4-(4-{[2-(morpholin-4-yl)ethyl]amino}imidazo[1,2-a]quinoxalin-1-yl)benzamide]
13.8	CC(C)CNc1nc2ccccc2n2c(-c3ccc(C(=O)NC4CC4C)cc3)cnc12 (centres unmarked) [Example 3-29, N-(2-methylcyclopropyl)-4-{4-[(2-methylpropyl)amino]imidazo[1,2-a]quinoxalin-1-yl}benzamide]
265	CNC(=O)Nc1ccc(-c2cnc3c(NCCCCO)nc4cc(C)c(C)cc4n23)cc1 [Example 2-165, 1-(4-{4-[(4-hydroxybutyl)amino]-7,8-dimethylimidazo[1,2-a]quinoxalin-1-yl}phenyl)-3-methylurea]
546	N#Cc1ccc2c(c1)nc(NCc1cccs1)c1ncc(-c3ccc(C(=O)NC4CC4)c(Cl)c3)n12 [Example 2-241, 2-chloro-4-{7-cyano-4-[(thiophen-2-ylmethyl)amino]imidazo[1,2-a]quinoxalin-1-yl}-N-cyclopropylbenzamide]
121	O=C(NC1CC1)c1ccc(-c2cnc3c(NCCc4ccncc4)nc4ccccc4n23)cc1 [Example 2-30, N-cyclopropyl-4-(4-{[2-(pyridin-4-yl)ethyl]amino}imidazo[1,2-a]quinoxalin-1-yl)benzamide]
93.7	O=C(NC1CC1)c1ccc(-c2cnc3c(NCC(F)(F)F)nc4cc(F)c(F)cc4n23)cc1 [Example 2-97, N-cyclopropyl-4-{7,8-difluoro-4-[(2,2,2-trifluoroethyl)amino]imidazo[1,2-a]quinoxalin-1-yl}benzamide]
416	CNC(=O)c1ccc(-c2cnc3c(NCC(C)C)nc4ccccc4n23)cn1 [Example 1-50, N-methyl-5-{4-[(2-methylpropyl)amino]imidazo[1,2-a]quinoxalin-1-yl}pyridine-2-carboxamide]
2970	CNC(=O)Nc1ccc(-c2cnc3c(NCc4cccnc4)nc4ccc(F)cc4n23)cc1 [Example 2-68, 1-(4-{8-fluoro-4-[(pyridin-3-ylmethyl)amino]imidazo[1,2-a]quinoxalin-1-yl}phenyl)-3-methylurea]
396	O=C(NC1CC1)c1ccc(-c2cnc3c(NCCCN4CCOCC4)nc4ccccc4n23)cc1 [Example 2-2, N-cyclopropyl-4-(4-{[3-(morpholin-4-yl)propyl]amino}imidazo[1,2-a]quinoxalin-1-yl)benzamide]
545	O=C(NC1CC1)c1ccc(-c2cnc3c(Nc4ccccc4)nc4ccccc4n23)cc1 [Example 2-9, N-cyclopropyl-4-[4-(phenylamino)imidazo[1,2-a]quinoxalin-1-yl]benzamide]
2880	CC(C)(C)OC(=O)NCCCNc1nc2ccc(F)cc2n2c(-c3ccc(C(=O)NC4CC4)c(Cl)c3)cnc12 [Example 2-84, tert-butyl [3-({1-[3-chloro-4-(cyclopropylcarbamoyl)phenyl]-8-fluoroimidazo[1,2-a]quinoxalin-4-yl}amino)propyl]carbamate]
143	O=C(NC1CC1)c1ccc(-c2cnc3c(NCc4cccc(F)c4)nc4cc(F)c(F)cc4n23)cc1 [Example 2-92, N-cyclopropyl-4-{7,8-difluoro-4-[(3-fluorobenzyl)amino]imidazo[1,2-a]quinoxalin-1-yl}benzamide]
4450	Cn1ccc(CNc2nc3cc(F)c(F)cc3n3c(-c4ccc(C(=O)NC5CC5)c(Cl)c4)cnc23)n1 [Example 2-141, 2-chloro-N-cyclopropyl-4-(7,8-difluoro-4-{[(1-methyl-1H-pyrazol-3-yl)methyl]amino}imidazo[1,2-a]quinoxalin-1-yl)benzamide]
2260	O=C(NC1CC1)c1ccc(-c2cnc3c(NCCCCO)nc4cc(F)c(F)cc4n23)cc1Cl [Example 2-129, 2-chloro-N-cyclopropyl-4-{7,8-difluoro-4-[(4-hydroxybutyl)amino]imidazo[1,2-a]quinoxalin-1-yl}benzamide]
3040	O=C(NC1CC1)c1ccc(-c2cnc3c(NCCCO)nc4ccc(F)cc4n23)cc1Cl [Example 2-80, 2-chloro-N-cyclopropyl-4-{8-fluoro-4-[(3-hydroxypropyl)amino]imidazo[1,2-a]quinoxalin-1-yl}benzamide]
5860	CC(C)CNc1nc2ccccc2n2c(-c3ccc(C(=O)NCCS(N)(=O)=O)cc3)cnc12 [Example 3-26, 4-{4-[(2-methylpropyl)amino]imidazo[1,2-a]quinoxalin-1-yl}-N-(2-sulfamoylethyl)benzamide]
5360	Cc1ccc(-c2cnc3c(NCC(C)C)nc4ccccc4n23)cc1 [Example 1-7, 1-(4-methylphenyl)-N-(2-methylpropyl)imidazo[1,2-a]quinoxalin-4-amine]
1760	COc1ccc(-c2cnc3c(NCC(C)C)nc4ccccc4n23)cc1F [Example 1-33, 1-(3-fluoro-4-methoxyphenyl)-N-(2-methylpropyl)imidazo[1,2-a]quinoxalin-4-amine]
1080	CCCNc1nc2ccc(F)cc2n2c(-c3ccc(C(=O)NC4CC4)c(Cl)c3)cnc12 [Example 2-75, 2-chloro-N-cyclopropyl-4-[8-fluoro-4-(propylamino)imidazo[1,2-a]quinoxalin-1-yl]benzamide]
2600	CC(=O)c1ccc(-c2cnc3c(NCC(C)C)nc4ccccc4n23)cc1 [Example 1-24, 1-(4-{4-[(2-methylpropyl)amino]imidazo[1,2-a]quinoxalin-1-yl}phenyl)ethanone]
1410	CNC(=O)Nc1ccc(-c2cnc3c(NCc4cccnc4)nc4cc(C#N)ccc4n23)cc1 [Example 2-230, 1-(4-{7-cyano-4-[(pyridin-3-ylmethyl)amino]imidazo[1,2-a]quinoxalin-1-yl}phenyl)-3-methylurea]
35.9	CCNc1nc2cc(C#N)ccc2n2c(-c3ccc(C(=O)NC4CC4)cc3)cnc12 [Example 2-210, 4-[7-cyano-4-(ethylamino)imidazo[1,2-a]quinoxalin-1-yl]-N-cyclopropylbenzamide]
113	O=C(NC1CC1)c1ccc(-c2cnc3c(NCCO)nc4ccccc4n23)cc1 [Example 2-1, N-cyclopropyl-4-[4-(2-hydroxy-ethylamino)-imidazo[1,2-a]quinoxalin-1-yl]-benzamide]
10100	CNC(=O)Nc1ccc(-c2cnc3c(NCC(O)CO)nc4ccc(F)cc4n23)cc1 (centres unmarked) [Example 2-74, 1-(4-{4-[(2,3-dihydroxypropyl)amino]-8-fluoroimidazo[1,2-a]quinoxalin-1-yl}phenyl)-3-methylurea]
369	CCCNC(=O)c1ccc(-c2cnc3c(NCC(C)C)nc4ccccc4n23)cc1 [Example 3-2, 4-{4-[(2-methylpropyl)amino]imidazo[1,2-a]quinoxalin-1-yl}-N-propylbenzamide]
5340	CNC(=O)Nc1ccc(-c2cnc3c(NCCCO)nc4cc(F)c(F)cc4n23)cc1 [Example 2-116, 1-(4-{7,8-difluoro-4-[(3-hydroxypropyl)amino]imidazo[1,2-a]quinoxalin-1-yl}phenyl)-3-methylurea]
